By IC50 is commonly meant the concentration that gives 50% inhibition.

Drawing on ChEMBL document CHEMBL1154859, “Structure of aldehyde reductase in ternary complex with a 5-arylidene-2,4-thiazolidinedione aldose reductase inhibitor” (Eur J Med Chem, 2010), this text covers IC50 and Ratio IC50 for one molecule.

Test [1] concerns the target T1, Aldo-keto reductase family 1 member A1 (Sus scrofa, UniProt P50578).
T1 sequence (P50578 whole entry): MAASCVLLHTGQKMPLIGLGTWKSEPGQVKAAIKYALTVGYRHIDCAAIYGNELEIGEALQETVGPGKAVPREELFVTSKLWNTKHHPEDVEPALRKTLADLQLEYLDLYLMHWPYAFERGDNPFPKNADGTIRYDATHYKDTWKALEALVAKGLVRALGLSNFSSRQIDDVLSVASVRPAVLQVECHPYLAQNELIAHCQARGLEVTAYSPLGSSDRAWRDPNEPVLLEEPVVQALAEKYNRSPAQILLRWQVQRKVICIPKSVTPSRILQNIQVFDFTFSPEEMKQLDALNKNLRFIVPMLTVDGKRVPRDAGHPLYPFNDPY
In words: Inhibition of pig ALR1 assessed as decrease in NADPH absorbance by spectrophotometry.

A short description of test [2]: Ratio of IC50 for pig ALR1 to IC50 for calf ALR2.

Consider `COc1ccc(/C=C2\SC(=O)N(CC(=O)O)C2=O)cc1O`, for which the IC50 in test [1] is 37 µM. The Ratio IC50 in test [2] was 56.
